Two compounds from ChEMBL document CHEMBL5543126, “Combinatorial Ubiquitination REal-time PROteolysis (CURE-PROs): A Modular Platform for Generating Reversible, Self-Assembling Bifunctional Targeted Degraders” (J Med Chem, 2024) can be followed below.

The term Emax denotes the maximal effect, on the per cent scale that the assay sets.

Type in all cases: cell-based
The target in experiment [1] is T1, von Hippel-Lindau disease tumor suppressor/Bromodomain-containing protein 4 (Homo sapiens, UniProt O60885+P40337). In words: PROTAC activity at VHL/BRD4 in HEK293 cells assessed as induction of BRD4 degradation by measuring degradation rate at 3 uM measured every 15 mins for 24 hrs in presence of VHL based ligand (2S,4R)-1-((S)-2-(2,3-dihydroxybenzamido)-3,3-dimethylbutanoyl)-4-hydroxy-N-(4-(4-methylthiazol-5-yl)benzyl)pyrrolidine-2-carboxamide by HiBiT based Combinatorial Ubiquitination Real-time PROteolysis analysis.
T1 sequence (P40337 whole entry, looked up, other chains not shown): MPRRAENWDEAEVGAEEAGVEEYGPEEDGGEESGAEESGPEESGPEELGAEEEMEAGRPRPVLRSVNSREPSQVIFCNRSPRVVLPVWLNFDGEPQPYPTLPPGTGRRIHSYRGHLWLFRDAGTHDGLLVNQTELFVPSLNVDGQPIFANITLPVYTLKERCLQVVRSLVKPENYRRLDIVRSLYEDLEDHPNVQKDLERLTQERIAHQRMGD

Experiment [2] addresses T1, von Hippel-Lindau disease tumor suppressor/Bromodomain-containing protein 4. The experiment can be described thus: PROTAC activity at BRD4/VHL in human MCF7 cells assessed as induction of BRD4 degradation by measuring residual activity at 3 uM incubated for 24 hrs in presence of VHL based ligand (2S,4R)-1-((S)-2-(2,3-dihydroxybenzamido)-3,3-dimethylbutanoyl)-4-hydroxy-N-(4-(4-methylthiazol-5-yl)benzyl)pyrrolidine-2-carboxamide by Western blot based Combinatorial Ubiquitination Real-time PROteolysis analysis. (A western blot detects proteins with antibodies after separation by electrophoresis.)

The target is the same in experiment [3]. The experiment can be described thus: PROTAC activity at BRD4/VHL in human MCF7 cells assessed as induction of BRD4 degradation by measuring residual activity at 300 nM incubated for 24 hrs in presence of 100 nM VHL based ligand (2S,4R)-1-((S)-2-(2,3-dihydroxybenzamido)-3,3-dimethylbutanoyl)-4-hydroxy-N-(4-(4-methylthiazol-5-yl)benzyl)pyrrolidine-2-carboxamide by Western blot based Combinatorial Ubiquitination Real-time PROteolysis analysis.

Experiment [4] has the same target. The experiment can be described thus: PROTAC activity at BRD4/VHL in human MCF7 cells assessed as induction of BRD4 degradation by measuring residual activity at 1 uM incubated for 24 hrs in presence of 100 nM VHL based ligand (2S,4R)-1-((S)-2-(2,3-dihydroxybenzamido)-3,3-dimethylbutanoyl)-4-hydroxy-N-(4-(4-methylthiazol-5-yl)benzyl)pyrrolidine-2-carboxamide by Western blot based Combinatorial Ubiquitination Real-time PROteolysis analysis.

Experiment [5] shares this target. The experiment can be described thus: PROTAC activity at BRD4/VHL in human MCF7 cells assessed as induction of BRD4 degradation by measuring residual activity at 300 nM incubated for 24 hrs in presence of 300 nM VHL based ligand (2S,4R)-1-((S)-2-(2,3-dihydroxybenzamido)-3,3-dimethylbutanoyl)-4-hydroxy-N-(4-(4-methylthiazol-5-yl)benzyl)pyrrolidine-2-carboxamide by Western blot based Combinatorial Ubiquitination Real-time PROteolysis analysis.

For experiment [6] the target is unchanged. In words: PROTAC activity at BRD4/VHL in human MCF7 cells assessed as induction of BRD4 degradation by measuring residual activity at 300 nM incubated for 24 hrs in presence of 3 uM VHL based ligand (2S,4R)-1-((S)-2-(2,3-dihydroxybenzamido)-3,3-dimethylbutanoyl)-4-hydroxy-N-(4-(4-methylthiazol-5-yl)benzyl)pyrrolidine-2-carboxamide by Western blot based Combinatorial Ubiquitination Real-time PROteolysis analysis.

Experiment [7] shares this target. In words: PROTAC activity at BRD4/VHL in human MCF7 cells assessed as induction of BRD4 degradation by measuring residual activity at 1 uM incubated for 24 hrs in presence of 3 uM VHL based ligand (2S,4R)-1-((S)-2-(2,3-dihydroxybenzamido)-3,3-dimethylbutanoyl)-4-hydroxy-N-(4-(4-methylthiazol-5-yl)benzyl)pyrrolidine-2-carboxamide by Western blot based Combinatorial Ubiquitination Real-time PROteolysis analysis.

Experiment [8] shares this target. The experiment can be described thus: PROTAC activity at VHL/BRD4 in HEK293 cells assessed as induction of BRD4 degradation by measuring maximal level of degradation at 0.3 uM measured every 15 mins for 24 hrs in presence of BRD4 based ligand ((4S)-6-(4-chlorophenyl)-4-(2-(ethylamino)-2-oxoethyl)-1-methyl4Hbenzo[f][1,2,4]triazolo [4,3-a][1,4]diazepin-8-yl)boronic acid by HiBiT based Combinatorial Ubiquitination Real-time PROteolysis analysis.

Experiment [9] has the same target. The experiment can be described thus: PROTAC activity at VHL/BRD4 in HEK293 cells assessed as induction of BRD4 degradation by measuring maximal level of degradation at 3 uM measured every 15 mins for 24 hrs in presence of BRD4 based ligand ((4S)-6-(4-chlorophenyl)-4-(2-(ethylamino)-2-oxoethyl)-1-methyl4Hbenzo[f][1,2,4]triazolo [4,3-a][1,4]diazepin-8-yl)boronic acid by HiBiT based Combinatorial Ubiquitination Real-time PROteolysis analysis. Background: With HiBiT, luminescence reflects the tagged protein that the partner subunit can reach.

The target is the same in experiment [10]. The experiment can be described thus: PROTAC activity at VHL/BRD4 in HEK293 cells assessed as induction of BRD4 degradation by measuring Tmax at 10 uM measured every 15 mins for 24 hrs in presence of BRD4 based ligand ((4S)-6-(4-chlorophenyl)-4-(2-(ethylamino)-2-oxoethyl)-1-methyl4Hbenzo[f][1,2,4]triazolo [4,3-a][1,4]diazepin-8-yl)boronic acid by HiBiT based Combinatorial Ubiquitination Real-time PROteolysis analysis.

Experiment [11] has the same target. The experiment can be described thus: PROTAC activity at BRD4/VHL in human MCF7 cells assessed as induction of BRD4 degradation by measuring residual activity at 30 nM incubated for 24 hrs in presence of BRD4 based ligand ((4S)-6-(4-chlorophenyl)-4-(2-(ethylamino)-2-oxoethyl)-1-methyl4Hbenzo[f][1,2,4]triazolo [4,3-a][1,4]diazepin-8-yl)boronic acid by Western blot based Combinatorial Ubiquitination Real-time PROteolysis analysis.

For experiment [12] the target is unchanged. In words: PROTAC activity at BRD4/VHL in human MCF7 cells assessed as induction of BRD4 degradation by measuring residual activity at 300 nM incubated for 24 hrs in presence of 300 nM BRD4 based ligand ((4S)-6-(4-chlorophenyl)-4-(2-(ethylamino)-2-oxoethyl)-1-methyl4Hbenzo[f][1,2,4]triazolo [4,3-a][1,4]diazepin-8-yl)boronic acid by Western blot based Combinatorial Ubiquitination Real-time PROteolysis analysis.

For experiment [13] the target is unchanged. The experiment can be described thus: PROTAC activity at BRD4/VHL in human MCF7 cells assessed as induction of BRD4 degradation by measuring residual activity at 3 uM incubated for 24 hrs in presence of 1 uM BRD4 based ligand ((4S)-6-(4-chlorophenyl)-4-(2-(ethylamino)-2-oxoethyl)-1-methyl4Hbenzo[f][1,2,4]triazolo [4,3-a][1,4]diazepin-8-yl)boronic acid by Western blot based Combinatorial Ubiquitination Real-time PROteolysis analysis.

The target is the same in experiment [14]. In words: PROTAC activity at BRD4/VHL in human MCF7 cells assessed as induction of BRD4 degradation by measuring residual activity at 30 nM incubated for 24 hrs in presence of 3 uM BRD4 based ligand ((4S)-6-(4-chlorophenyl)-4-(2-(ethylamino)-2-oxoethyl)-1-methyl4Hbenzo[f][1,2,4]triazolo [4,3-a][1,4]diazepin-8-yl)boronic acid by Western blot based Combinatorial Ubiquitination Real-time PROteolysis analysis.

Experiment [15] has the same target. In words: PROTAC activity at BRD4/VHL in human MCF7 cells assessed as induction of BRD4 degradation by measuring residual activity at 1 uM incubated for 24 hrs in presence of 10 uM BRD4 based ligand ((4S)-6-(4-chlorophenyl)-4-(2-(ethylamino)-2-oxoethyl)-1-methyl4Hbenzo[f][1,2,4]triazolo [4,3-a][1,4]diazepin-8-yl)boronic acid by Western blot based Combinatorial Ubiquitination Real-time PROteolysis analysis.

Take `CCNC(=O)C[C@@H]1N=C(c2ccc(Cl)cc2)c2cc(B(O)O)ccc2-n2c(C)nnc21`: the Activity worked out at 0.908 h⁻¹ in [1]; 73% in [2]; 72% in experiment [3]; 56% in experiment [4]; 68% in experiment [5]; 37% in [6]. Further, in experiment [7], the Activity came out at 22%.

For `Cc1ncsc1-c1ccc(CNC(=O)[C@@H]2C[C@@H](O)CN2C(=O)[C@@H](NC(=O)c2cccc(O)c2O)C(C)(C)C)cc1`, the figures for the Emax in experiment [8] and in [9] were 47% and 93%, respectively. Further, in experiment [10], the Tmax is 22.2 h. Further, the Activity was 91% in [11]; 68% in [12]; 32% in experiment [13]; 90% in experiment [14]; 20% in experiment [15].
